In publication PMC12144419, “Early preclinical development of Mycobacteriumtuberculosis amino acid biosynthesis pathway inhibitor DRILS-1398 as a potential anti-TB drug” (iScience, 2025):

What was measured:
[1] = test system: M.tb-CM; set-up: method as in doi:10.1039/C1MD00148E; conditions: read-out: IC50, inhibition of M.tb-CM; cited from earlier work
[2] = test system: intracellular MDR-M.tb H37Rv (ATCC 35825) in activated THP-1 macrophages; assay: Intracellular efficacy THP-1 macrophage assay, MDR-M.tb ATCC 35825; format: cell-based, Mycobacterium tuberculosis; conditions: Fig 4E; day 7; DRILS-1398 15 μM, rifampicin 19.45 μM, alone or combined
[3] = test system: intracellular M.tb H37Rv (ATCC 27294) in activated THP-1 macrophages; assay: Intracellular efficacy THP-1 macrophage assay, M.tb H37Rv ATCC 27294; conditions: Fig 4D, DRILS-1398 15 μM, rifampicin 19.45 μM, alone or combined
Protocol: The THP-1 cells were activated with PMA (phorbol 12-myristate-13-acetate) for differentiation into macrophages. After 72 hr of activation, the THP-1 macrophages were infected with M.tb H37Rv strain (ATCC-27294 and ATCC-35825) at a multiplicity of infection (MOI) of 1:10.[34]^,[35] The macrophage infection was allowed for 2 hrs at 37°C with 5% CO2. The media containing M.tb was discarded, and macrophage monolayers were washed twice with phosphate-buffered saline to remove the extracellular bacteria and replenished with fresh, complete RPMI. The M.tb-infected macrophages were exposed to compounds by transferring 200 μL of fresh media containing the respective concentrations of the compounds. Duplicate wells were lysed (0.05% SDS) at specific time points and enumerated to estimate the numbers of intracellular M.tb 2 hr post-infection. The 0.1 mL of lysate was serially diluted and plated onto Middle brook 7H11 agar plates for enumeration (read after 3 to 4 weeks) of live M.tb after compound treatment. After 3 and 7 day exposure to the compounds, the cells were treated the same way, and the live M.tb was enumerated. The efficacy of the test compound was assessed by comparing the M.tb counts from the respective days to day 0 and day 7.

[4] = test system: M.tb H37Rv; assay: Histopathology (H&E, ZN stain) of lungs of infected mice
[5] = Table S4, lung of infected treated mice

For `CS(=O)(=O)Nc1ccc(F)cc1-c1cc2cc(F)ccc2n1S(C)(=O)=O` [B], the IC50 [1] is given as about 17 µM.
With `CO[C@H]1/C=C/O[C@@]2(C)Oc3c(C)c(O)c4c(O)c(c(/C=N/N5CCN(C)CC5)c(O)c4c3C2=O)NC(=O)/C(C)=C\C=C\[C@H](C)[C@H](O)[C@@H](C)[C@@H](O)[C@@H](C)[C@H](OC(C)=O)[C@@H]1C` [Rifampicin, reference compound] the “cfu reduction vs day 7 control, combination study” value [2] was 1.96 log10 cfu/mL, the “cfu reduction vs day 3 control, combination study” value ([3]; day 3) was 1.26 log10 cfu/mL and the “cfu reduction vs day 7 control, combination study” value ([3]; day 7) was 2.28 log10 cfu/mL.
In the case of `NNC(=O)c1ccncc1` [Isoniazid, reference compound], the “Granuloma in the lung” value ([4]; DRILS-1398 and DRILS-1398(F) 30 mg/kg, isoniazid 5 mg/kg) is reported as “no signs of granuloma”, the Granuloma [4, 5] is reported as “-” and the “ZN stain (Acid Fast Bacilli)” value [4, 5] is reported as “+”. The “Acid-fast bacilli load in lung, ZN staining” value ([4]; vs infected mice without drug) was “minimal presence of bacilli”.
